Data set [1] in a line: Antiviral activity against BVDV NADL infected in MDBK cells assessed as inhibition of virus induced cytopathogenicity after 3 to 4 days by MTT assay. To be noted: Bovine viral diarrhea virus isolates and strains. The class given is functional, cell-based, Bovine viral diarrhea virus 1-NADL. For orientation: Cytopathic effects are the visible damage that an infection or toxin causes in cultured cells.

A short description of data set [2]: Cytotoxicity against mock-infected BHK21 cells assessed as reduction in cell viability after 72 hrs by MTT assay. Type of data set: cell-based, Mesocricetus auratus, BHK-21. To be noted: hamster. For orientation: Tetrazolium assays rely on reduction of a dye to a coloured formazan, in cell work by metabolically active cells.
The next data set deals with Yellow fever virus. As to the kind of experiment: Antiviral activity against Yellow fever virus 17D infected in BHK21 cells assessed as inhibition of virus induced cytopathogenicity after 3 to 4 days by MTT assay. The class given is functional, cell-based. To be noted: BHK-21.
Data set [3] deals with Mammalian orthoreovirus 1. Description: Antiviral activity against Reovirus type-1 3651 infected in BHK21 cells assessed as inhibition of virus induced cytopathogenicity after 3 to 4 days by MTT assay. Type of data set: functional, cell-based. To be noted: Mammalian orthoreovirus 1, 3651, BHK-21.
Data set [4] is described as follows: Cytotoxicity against mock-infected african green monkey Vero 76 cells assessed as reduction in cell viability after 48 to 96 hrs by MTT assay. The class given is cell-based. To be noted: chlorocebus sabaeus, mock-infected Vero 76 cells.
Another data set has as its system Coxsackievirus B2. As to the kind of experiment: Antiviral activity against CVB-2 infected in Vero 76 cells after 3 days by crystal violet staining based plaque reduction assay. Type of data set: functional, organism-based. To be noted: Enterovirus B, Vero 76, 72 h. Background: Plaques are areas of infected cells; plaque reduction assays count them against a control.

Another data set has as its system Poliovirus 1. As to the kind of experiment: Antiviral activity against Human poliovirus 1 strain Sabin infected in Vero 76 cells after 2 days by crystal violet staining based plaque reduction assay. The class given is functional, organism-based. To be noted: Enterovirus C, Vero 76, 48 h.
The test system of data set [5] is Respiratory syncytial virus. Description: Antiviral activity against Respiratory syncytial virus A2 infected in Vero 76 cells after 5 days by crystal violet staining based plaque reduction assay. To be noted: human respiratory syncytial virus, A2, Vero 76, 120 h. The class given is functional, organism-based.
Data set [6] has as its system Vesicular stomatitis virus. Description: Antiviral activity against Vesicular stomatitis virus Indiana infected in Vero 76 cells after 2 days by crystal violet staining based plaque reduction assay. Type of data set: functional, organism-based. To be noted: Vero 76, 48 h.
Another data set deals with Vaccinia virus. Description: Antiviral activity against Vaccinia virus Elstree infected in Vero 76 cells after 3 days by crystal violet staining based plaque reduction assay. The class given is functional, organism-based. To be noted: Orthopoxvirus vaccinia, Vero 76, 72 h.
The nature of data set [7]: Cytotoxicity against mock-infected MDBK cells assessed as reduction in cell viability after 72 hrs by MTT assay. The class given is cell-based, Bos taurus. To be noted: cattle.
Data set [8] in a line: Selectivity index, ratio of CC50 for MDBK cells to EC50 for […] NADL infected in MDBK cells.

The values below come from ChEMBL document CHEMBL3808296, “A combined in silico/in vitro approach unveils common molecular requirements for efficient BVDV RdRp binding of linear aromatic N-polycyclic systems” (Eur J Med Chem, 2016).

The structures appear in SMILES notation. A value given as a limit tells only on which side of the number the result lay.

As a reminder, the EC50 is the concentration that produces a half-maximal response. Usually CC50 stands for the concentration that lowers cell viability or growth by half.

For the compound `CC(C)c1nc2c(Cl)c3ncccc3cc2[nH]c1=O`, the concentration giving a half-maximal response (EC50) in [1] is above 100 µM.

Consider `COc1ccc(-c2nc3cc(/C(C)=N/NC(N)=S)ccc3[nH]2)c(OC)c1`, for which the 50% effective concentration (EC50) in data set [1] stood at 0.002 µM.

On to `CC(=O)c1ccc(-c2nc3cccnc3[nH]2)cc1`, for which the half-maximal effective concentration (EC50) in data set [1] is above 100 µM.

In the case of `N#Cc1ccc(-c2nc3ccncc3[nH]2)cc1`, the half-maximal effective concentration (EC50) in data set [1] is 9 µM.

On to `N#Cc1ccc(/C=N/c2cc3cccnc3c(Cl)c2N)cc1`, for which the concentration for a half-maximal effect (EC50) in data set [1] amounted to 2 µM.

Turning to `COc1nc2cc3cccnc3c(Cl)c2nc1C(C)C`, in data set [1], the EC50 was above 100 µM.

Regarding `CCn1c(=O)c(-c2ccccc2)nc2c(Cl)c3ncccc3cc21`, the half-maximal effective concentration (EC50) in [1] is above 100 µM.

With `O=c1[nH]c2cc3cccnc3c(Cl)c2nc1-c1cccs1`, the EC50 in data set [1] came to 5 µM.

`Cn1c(=O)c(-c2cccs2)nc2c(Cl)c3ncccc3cc21`: the EC50 in [1] is 2 µM.

With `NS(=O)(=O)c1ccc(-c2nc3cc4cccnc4c(Cl)c3[nH]2)cc1`, the cytotoxic concentration (CC50) at 72 h in [2] and in data set [7] was above 100 µM each time. In addition, the EC50 is above 100 µM with Yellow fever virus; above 100 µM in data set [3]; above 100 µM in the data set with Coxsackievirus B2; 21 µM in the data set with Poliovirus 1; 18 µM in [5]; above 100 µM in [6]. The concentration giving a half-maximal response (EC50) (in the data set with Vaccinia virus; in [1]) was above 100 µM in each case. For the same compound, the 50% cytotoxic concentration (CC50) in [4] was above 100 µM.

In the case of `N#Cc1ccc(-c2nc3cc4cccnc4cc3[nH]2)cc1`, the figures for the 50% cytotoxic concentration (CC50) at 72 h in data set [2] and in data set [7] were 21 µM and above 100 µM, respectively. In addition, the EC50 in the data set on Yellow fever virus was above 21 µM; in data set [3], 7 µM; in the data set on Coxsackievirus B2, above 30 µM; in the data set with Poliovirus 1 it was above 30 µM; in [5], above 16 µM; in [6], above 100 µM. Further, the values for the EC50 (in the data set with Vaccinia virus; in data set [1]) were above 100 µM and 4 µM, respectively. Besides, the CC50 in data set [4] was 30 µM. Further, the “Ratio CC50/EC50” value in [8] is above 25.

Regarding `FC(F)(F)c1ccc(-c2nc3cc4cccnc4c(Cl)c3[nH]2)cc1`, the CC50 at 72 h in data set [2] and in data set [7] was above 100 µM in each case. Also, the EC50 with Yellow fever virus was above 56 µM; in [3], above 100 µM; in the data set on Coxsackievirus B2, above 100 µM; in the data set with Poliovirus 1, above 100 µM; in data set [5], above 100 µM; in data set [6], above 100 µM. In addition, the values for the concentration giving a half-maximal response (EC50) (in the data set with Vaccinia virus; in data set [1]) were above 100 µM and 2 µM, respectively. Moreover, the CC50 in [4] is above 100 µM. For the same compound, the “Ratio CC50/EC50” value in data set [8] is listed as above 50.

Consider `CC(=O)c1ccc(-c2nc3cc4cccnc4c(Cl)c3[nH]2)cc1`, for which the CC50 at 72 h in data set [2] and in data set [7] was above 100 µM in each case. The EC50 with Yellow fever virus was above 100 µM; in data set [3], 60 µM; in the data set on Coxsackievirus B2, above 100 µM; in the data set with Poliovirus 1 it was above 100 µM; in data set [5] it was above 100 µM; in [6] it was above 100 µM. The EC50 is above 100 µM in the data set with Vaccinia virus and 5.8 µM in [1]. Moreover, the CC50 in data set [4] was above 100 µM. For the same compound, in data set [8], the “Ratio CC50/EC50” value is on record as above 17.2.

As for `COc1ccc(-c2nc3cc4cccnc4c(Cl)c3n2CC2CCCCC2)cc1`, the CC50 at 72 h in [7] amounted to 20 µM. Moreover, the EC50 in data set [1] is 5 µM. Also, in data set [8], the “Ratio CC50/EC50” value is listed as 4.

In the case of `FC(F)(F)c1ccc(-c2nc3cc4cccnc4cc3[nH]2)cc1`, the 50% cytotoxic concentration (CC50) at 72 h in [2] and in data set [7] was above 100 µM each time. The EC50 with Yellow fever virus is above 100 µM; in data set [3], 52 µM; in the data set with Coxsackievirus B2, above 100 µM; in the data set with Poliovirus 1, 67 µM; in [5], above 100 µM; in data set [6], above 100 µM. The figures for the EC50 (in the data set with Vaccinia virus; in data set [1]) were above 100 µM and 7 µM, respectively. The CC50 in data set [4] was above 100 µM. Besides, in data set [8], the “Ratio CC50/EC50” value is listed as above 14.2.

`CSc1ccc(-c2nc3cc4cccnc4c(Cl)c3[nH]2)cc1`: the cytotoxic concentration (CC50) at 72 h in data set [2] and in data set [7] was above 100 µM in each case. The 50% effective concentration (EC50) in the data set on Yellow fever virus is above 100 µM; in data set [3], 100 µM; in the data set on Coxsackievirus B2 it was above 100 µM; in the data set on Poliovirus 1, above 100 µM; in data set [5] it was above 100 µM; in [6], above 100 µM. Besides, the EC50 was above 100 µM with Vaccinia virus and 6.1 µM in [1]. In data set [4], the CC50 is above 100 µM. In data set [8], the “Ratio CC50/EC50” value is above 16.4.

`COc1ccc(-c2nc3cc4cccnc4cc3[nH]2)c(OC)c1`: the half-maximal cytotoxic concentration (CC50) at 72 h was 45 µM in data set [2] and above 100 µM in data set [7]. Also, the concentration for a half-maximal effect (EC50) in the data set on Yellow fever virus was above 45 µM; in data set [3], 38 µM; in the data set on Coxsackievirus B2, 12 µM; in the data set with Poliovirus 1 it was 16 µM; in data set [5], above 45 µM; in data set [6], above 90 µM. The results for the EC50 (in the data set on Vaccinia virus; in data set [1]) were 16 µM and 3.4 µM, respectively. Also, the cytotoxic concentration (CC50) in [4] was 90 µM. The “Ratio CC50/EC50” value in data set [8] is above 29.4.

With `Clc1c2ncccc2cc2nc(-c3ccoc3)[nH]c12`, the CC50 at 72 h in data set [7] was above 100 µM. Besides, the EC50 in data set [1] is 2 µM. The “Ratio CC50/EC50” value in data set [8] was above 50.

Regarding `O=c1cnc2c(Cl)c3ncccc3cc2[nH]1`, in data set [1], the EC50 is above 100 µM.

Consider `COc1ccc(-c2nc3cc4cccnc4c(Cl)c3[nH]2)c(OC)c1`, for which the CC50 at 72 h in data set [2] and in [7] was above 100 µM each time. In addition, the 50% effective concentration (EC50) in the data set on Yellow fever virus is 95 µM; in data set [3], above 100 µM; in the data set on Coxsackievirus B2, 29 µM; with Poliovirus 1, 41 µM; in data set [5], 10 µM; in data set [6], above 100 µM. In addition, the figures for the EC50 (in the data set with Vaccinia virus; in data set [1]) were 13 µM and 6.3 µM, respectively. Further, in [4], the CC50 was above 100 µM. Further, the “Ratio CC50/EC50” value in data set [8] is on record as above 15.9.

With `Fc1ccc(-c2nc3cc4cccnc4cc3[nH]2)c(F)c1`, the cytotoxic concentration (CC50) at 72 h in data set [2] and in [7] was above 100 µM each time. Also, the 50% effective concentration (EC50) in the data set with Yellow fever virus was above 100 µM; in data set [3] it was 10 µM; in the data set on Coxsackievirus B2, 35 µM; with Poliovirus 1, above 100 µM; in data set [5], above 58 µM; in [6] it was above 100 µM. The values for the EC50 (in the data set with Vaccinia virus; in [1]) were above 100 µM and 6 µM, respectively. Besides, the CC50 in data set [4] was above 100 µM. For the same compound, in data set [8], the “Ratio CC50/EC50” value is above 16.7.

As for `C[C@@]1(O)[C@H](O)[C@@H](CO)O[C@H]1n1ccc(N)nc1=O`, the CC50 at 72 h in data set [2] was above 100 µM.

On to `C[C@@]1(O)[C@H](O)[C@@H](CO)O[C@H]1n1cnc2c(=O)[nH]c(N)nc21` [2'-B-METHYL-GUANOSINE], for which the CC50 at 72 h in data set [2] and in data set [7] was above 10 µM throughout. Also, in data set [8], the “Ratio CC50/EC50” value is recorded as above 9.1.

As to `C#C[C@@]1(O)[C@H](O)[C@@H](CO)O[C@H]1n1ccc(N)nc1=O` [2'-ETHYNYL-D-CYTIDINE], the CC50 in data set [4] was above 100 µM. Also, the concentration giving a half-maximal response (EC50) with Coxsackievirus B2 was found to be 27 µM.

Take `O=c1cnn([C@@H]2O[C@H](CO)[C@@H](O)[C@H]2O)c(=O)[nH]1` [6-AZAURIDINE]: the half-maximal cytotoxic concentration (CC50) in data set [4] was above 12.5 µM.

As to `Nc1nc2c(ncn2COCCO)c(=O)[nH]1` [ACYCLOVIR], the CC50 in [4] is above 100 µM. In the data set on Vaccinia virus, this compound returned an EC50 of 1.5 µM.

For the compound `COc1c(C)c2c(c(O)c1C/C=C(\C)CCC(=O)O)C(=O)OC2` [MYCOPHENOLIC ACID], the CC50 in data set [4] is above 12.5 µM.

Consider `NC(=O)c1ncn([C@@H]2O[C@H](CO)[C@@H](O)[C@H]2O)n1` [RIBAVIRIN], for which the cytotoxic concentration (CC50) at 72 h in data set [7] was determined as 5 µM. Also, the EC50 in [1] is 1.3 µM. For the same compound, in data set [8], the “Ratio CC50/EC50” value is listed as 3.8.
